This note sets out measurements from US20250163104A1, “MACROCYCLIC IMMUNOMODULATORS” (priority 2021, published 2025).

SMILES strings stand for the structures. Where a SMILES comes first, the peptide text is derived from it. Bridges are numbered along the chain shown (N, C = ends). [ ]: non-standard residue; d: D form. The star is where a group is joined. ξ: configuration not given here. Ala(1H-tetrazol-5-yl) = N[C@@H](Cc1nnn[nH]1)C(=O)O; Phe(4-COOH) = N[C@@H](Cc1ccc(C(=O)O)cc1)C(=O)O; Bip = N[C@@H](Cc1ccc(-c2ccccc2)cc1)C(=O)O; Phe(3-Me) = Cc1cccc(C[C@H](N)C(=O)O)c1; 4Pal = N[C@@H](Cc1ccncc1)C(=O)O; Cha = N[C@@H](CC1CCCCC1)C(=O)O; Cit = NC(=O)NCCC[C@H](N)C(=O)O; Carboxymethyl = O=C(O)C*; Nle = CCCC[C@H](N)C(=O)O; Orn = NCCC[C@H](N)C(=O)O; Dab = NCC[C@H](N)C(=O)O; Dap = NC[C@H](N)C(=O)O; ξOrn = NCCCC(N)C(=O)O

One may read the IC50 as the concentration needed to halve the response being measured.

The target in the first test is T1, human PD-1 / PD-L1-Ig binding on Jurkat cell line over-expressing human PD-1 (Jurkat-PD-1) (Homo sapiens, UniProt Q15116).
T1 construct: expressed in transfected cells; host or cells: Jurkat
T1 sequence (Q15116 25-288): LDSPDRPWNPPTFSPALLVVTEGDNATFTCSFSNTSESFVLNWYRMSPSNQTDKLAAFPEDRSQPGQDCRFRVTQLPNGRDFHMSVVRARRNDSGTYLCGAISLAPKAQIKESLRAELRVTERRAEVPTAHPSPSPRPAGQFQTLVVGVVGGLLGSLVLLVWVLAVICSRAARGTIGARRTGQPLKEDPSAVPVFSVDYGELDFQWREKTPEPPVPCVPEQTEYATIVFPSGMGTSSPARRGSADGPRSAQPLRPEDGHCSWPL
In words: Jurkat-PD-1 Cell Binding High-Content Screening Assay (CBA). The format is cell-based. Particulars: Jurkat HPD1_PDL1 IC50, Jurkat-PD-1 cells, PE-labeled PD-L1-Ig 20 nM final. The method, boiled down: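 Read-out: high-content imaging of PE-tagged PD-L1-Ig bound to Jurkat cells overexpressing human PD-1, after fixation with 4% paraformaldehyde and Hoechst 33342 nuclear staining. Ligand was used at 20 nM final for 1 hour, after a 2 h compound exposure at 37° C in serum-containing DMEM.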
On to `CC(C)C[C@@H]1NC(=O)[C@H](Cc2c[nH]c3ccccc23)NC(=O)[C@H](CC(=O)O)NC(=O)[C@H](Cc2ccc(OCC(=O)O)cc2)NC(=O)[C@H](CN)NC(=O)CSC[C@@H](C(=O)NCC(N)=O)NC(=O)[C@H](CO)NC(=O)[C@H](C(C)C)NC(=O)[C@H](CC2CCCCC2)NC(=O)[C@H](CC(N)=O)NC(=O)[C@@H](CC(C)C)NC(=O)[C@H](CCCN)NC(=O)[C@H](C(C)C)NC(=O)[C@H](Cc2ccc(-c3ccccc3)cc2)NC1=O` [Compound 1336] ({CH2CO}-[Dap]Y(Carboxymethyl)DWL[Bip]V[Orn][dL]N[Cha]VSCG-NH2; thioether N-14), for which the IC50 is 21.2 nM.

Still in this test, the particulars now being: Jurkat-PD-1 cells, PE-labeled PD-L1-Ig 20 nM final; read-out: Jurkat HPD1_PDL1 IC50.
`CC(C)C[C@H]1NC(=O)[C@H](CCCN)NC(=O)[C@H](CCCNC(N)=O)NC(=O)[C@H](Cc2ccc(-c3ccccc3)cc2)NC(=O)[C@H](C(C)C)NC(=O)[C@H](Cc2c[nH]c3ccccc23)NC(=O)[C@H](CC(=O)O)NC(=O)[C@H](Cc2ccncc2)NC(=O)[C@H](Cc2ccc(OCC(=O)O)cc2)NC(=O)CSC[C@@H](C(=O)N[C@@H](C)C(N)=O)NC(=O)[C@H]([C@@H](C)O)NC(=O)[C@H](C(C)C)NC(=O)[C@H](CC2CCCCC2)NC(=O)[C@H](CCN)NC1=O` [Compound 1326]: the IC50 came out at 12.1 nM.
As for `Cc1cccc(C[C@@H]2NC(=O)[C@H](Cc3nn[nH]n3)NC(=O)[C@H](Cc3ccc(OCC(=O)O)cc3)NC(=O)[C@H](CN)NC(=O)CSC[C@@H](C(=O)N[C@@H](C)C(N)=O)NC(=O)[C@H]([C@@H](C)O)NC(=O)[C@H](C(C)C)NC(=O)[C@H](CC3CCCCC3)NC(=O)[C@H](CCN)NC(=O)[C@@H](CC(C)C)NC(=O)[C@H](CCCN)NC(=O)[C@H](CCCNC(N)=O)NC(=O)[C@H](Cc3ccc(-c4ccccc4)cc3)NC(=O)[C@H](C(C)C)NC2=O)c1` [Compound 1327] ({CH2CO}-[Dap]Y(Carboxymethyl)[Ala(1H-tetrazol-5-yl)][Phe(3-Me)]V[Bip][Cit][Orn][dL][Dab][Cha]VTCA-NH2; thioether N-14), the IC50 is 31.6 nM.
Take `CC(C)C[C@H]1NC(=O)[C@H](CCCN)NC(=O)[C@H](CCCNC(N)=O)NC(=O)[C@H](Cc2ccc(-c3ccccc3)cc2)NC(=O)[C@H](C(C)C)NC(=O)[C@H](Cc2c[nH]c3ccccc23)NC(=O)[C@H](Cc2nn[nH]n2)NC(=O)[C@H](Cc2ccc(OCC(=O)O)cc2)NC(=O)[C@H](CN)NC(=O)CSC[C@@H](C(=O)N[C@@H](C)C(N)=O)NC(=O)[C@H]([C@@H](C)O)NC(=O)[C@H](C(C)C)NC(=O)[C@H](CC2CCCCC2)NC(=O)[C@H](CCN)NC1=O` [Compound 1328] ({CH2CO}-[Dap]Y(Carboxymethyl)[Ala(1H-tetrazol-5-yl)]WV[Bip][Cit][Orn][dL][Dab][Cha]VTCA-NH2; thioether N-14): the half-maximal inhibitory concentration (IC50) came out at 34.5 nM.
The same measure, in the same setting: for `Cc1cccc(C[C@@H]2NC(=O)[C@H](CC(=O)O)NC(=O)[C@H](Cc3ccncc3)NC(=O)[C@H](Cc3ccc(OCC(=O)O)cc3)NC(=O)CSC[C@@H](C(=O)N[C@@H](C)C(N)=O)NC(=O)[C@H]([C@@H](C)O)NC(=O)[C@H](C(C)C)NC(=O)[C@H](CC3CCCCC3)NC(=O)[C@H](CCN)NC(=O)[C@@H](CC(C)C)NC(=O)[C@H](CCCN)NC(=O)[C@H](C(C)C)NC(=O)[C@H](Cc3ccc(-c4ccccc4)cc3)NC(=O)[C@H](C(C)C)NC2=O)c1` [Compound 1329] ({CH2CO}-Y(Carboxymethyl)[4Pal]D[Phe(3-Me)]V[Bip]V[Orn][dL][Dab][Cha]VTCA-NH2; thioether N-14) the value was 6.8 nM; for `CC[C@H](C)[C@@H]1NC(=O)[C@H](Cc2ccc(-c3ccccc3)cc2)NC(=O)[C@H](C(C)C)NC(=O)[C@H](Cc2cccc(C)c2)NC(=O)[C@H](CC(=O)O)NC(=O)[C@H](Cc2ccncc2)NC(=O)[C@H](Cc2ccc(OCC(=O)O)cc2)NC(=O)CSC[C@@H](C(=O)N[C@@H](C)C(N)=O)NC(=O)[C@H]([C@@H](C)O)NC(=O)[C@H](C(C)C)NC(=O)[C@H](CC2CCCCC2)NC(=O)[C@H](CCN)NC(=O)[C@@H](CC(C)C)NC(=O)[C@H](CCCN)NC1=O` [Compound 1330], 12.8 nM; for `CC(C)C[C@H]1NC(=O)[C@H](CCCN)NC(=O)[C@H](C(C)C)NC(=O)[C@H](Cc2ccc(-c3ccccc3)cc2)NC(=O)[C@H](C(C)C)NC(=O)[C@H](Cc2c[nH]c3ccccc23)NC(=O)[C@H](CC(=O)O)NC(=O)[C@H](Cc2ccncc2)NC(=O)[C@H](Cc2ccc(OCC(=O)O)cc2)NC(=O)CSC[C@@H](C(=O)N[C@@H](C)C(N)=O)NC(=O)[C@H]([C@@H](C)O)NC(=O)[C@H](C(C)C)NC(=O)[C@H](CC2CCCCC2)NC(=O)[C@H](CCN)NC1=O` [Compound 1331], 6 nM.
In the case of `CC[C@H](C)[C@@H]1NC(=O)[C@H](Cc2ccc(-c3ccccc3)cc2)NC(=O)[C@H](C(C)C)NC(=O)[C@H](Cc2c[nH]c3ccccc23)NC(=O)[C@H](CC(=O)O)NC(=O)[C@H](Cc2ccncc2)NC(=O)[C@H](Cc2ccc(OCC(=O)O)cc2)NC(=O)CSC[C@@H](C(=O)N[C@@H](C)C(N)=O)NC(=O)[C@H]([C@@H](C)O)NC(=O)[C@H](C(C)C)NC(=O)[C@H](CC2CCCCC2)NC(=O)[C@H](CCN)NC(=O)[C@@H](CC(C)C)NC(=O)[C@H](CCCN)NC1=O` [Compound 1332], the IC50 came to 11.7 nM.
`CC(C)C[C@H]1NC(=O)C(CCCN)NC(=O)[C@H](CCCNC(N)=O)NC(=O)[C@H](Cc2ccc(-c3ccccc3)cc2)NC(=O)[C@H](C(C)C)NC(=O)[C@H](Cc2c[nH]c3ccccc23)NC(=O)[C@H](CC(=O)O)NC(=O)[C@H](Cc2ccc(C(=O)O)cc2)NC(=O)[C@H](CN)NC(=O)CSC[C@@H](C(=O)N[C@@H](C)C(N)=O)NC(=O)[C@H]([C@@H](C)O)NC(=O)[C@H](C(C)C)NC(=O)[C@H](CC2CCCCC2)NC(=O)[C@H](CCN)NC1=O` (stereo partly drawn) [Compound 1333] ({CH2CO}-[Dap][Phe(4-COOH)]DWV[Bip][Cit][ξOrn][dL][Dab][Cha]VTCA-NH2; thioether N-14): the IC50 is 6.9 nM.
Take `CC(C)C[C@@H]1NC(=O)[C@H](Cc2c[nH]c3ccccc23)NC(=O)[C@H](CC(=O)O)NC(=O)[C@H](Cc2ccc(O)cc2)NC(=O)[C@H](Cc2ccccc2)NC(=O)CSC[C@@H](C(=O)NCC(N)=O)NC(=O)[C@H](CO)NC(=O)[C@H](C(C)C)NC(=O)[C@H](CC2CCCCC2)NC(=O)[C@H](CC(N)=O)NC(=O)[C@@H](CC(C)C)NC(=O)[C@H](CCCN)NC(=O)[C@H](C(C)C)NC(=O)[C@H](Cc2ccc(-c3ccccc3)cc2)NC1=O` [Compound 1334] ({CH2CO}-FYDWL[Bip]V[Orn][dL]N[Cha]VSCG-NH2; thioether N-14): the IC50 came to 26.9 nM.
Still for that read-out and setting: for `CC(C)C[C@@H]1NC(=O)[C@H](Cc2c[nH]c3ccccc23)NC(=O)[C@H](CC(=O)O)NC(=O)[C@H](Cc2ccc(C(=O)O)cc2)NC(=O)[C@H](Cc2ccc(OCC(=O)O)cc2)NC(=O)CSC[C@@H](C(=O)NCC(N)=O)NC(=O)[C@H](CO)NC(=O)[C@H](C(C)C)NC(=O)[C@H](CC2CCCCC2)NC(=O)[C@H](CC(N)=O)NC(=O)[C@@H](CC(C)C)NC(=O)[C@H](CCCN)NC(=O)[C@H](C(C)C)NC(=O)[C@H](Cc2ccc(-c3ccccc3)cc2)NC1=O` [Compound 1335] ({CH2CO}-Y(Carboxymethyl)[Phe(4-COOH)]DWL[Bip]V[Orn][dL]N[Cha]VSCG-NH2; thioether N-14) the value was 20.9 nM; for `CC(C)C[C@@H]1NC(=O)[C@H](Cc2c[nH]c3ccccc23)NC(=O)[C@H](CC(=O)O)NC(=O)[C@H](Cc2ccncc2)NC(=O)[C@H](CN)NC(=O)CSC[C@@H](C(=O)NCC(N)=O)NC(=O)[C@H](CO)NC(=O)[C@H](C(C)C)NC(=O)[C@H](CC2CCCCC2)NC(=O)[C@H](CC(N)=O)NC(=O)[C@@H](CC(C)C)NC(=O)[C@H](CCCN)NC(=O)[C@H](C(C)C)NC(=O)[C@H](Cc2ccc(-c3ccccc3)cc2)NC1=O` [Compound 1337] ({CH2CO}-[Dap][4Pal]DWL[Bip]V[Orn][dL]N[Cha]VSCG-NH2; thioether N-14), 27 nM.
For `CC(C)C[C@@H]1NC(=O)[C@H](Cc2c[nH]c3ccccc23)NC(=O)[C@H](CC(=O)O)NC(=O)[C@H](Cc2ccncc2)NC(=O)[C@H](Cc2ccc(OCC(=O)O)cc2)NC(=O)CSC[C@@H](C(=O)NCC(N)=O)NC(=O)[C@H](CO)NC(=O)[C@H](C(C)C)NC(=O)[C@H](CC2CCCCC2)NC(=O)[C@H](CC(N)=O)NC(=O)[C@@H](CC(C)C)NC(=O)[C@H](CCCN)NC(=O)[C@H](C(C)C)NC(=O)[C@H](Cc2ccc(-c3ccccc3)cc2)NC1=O` [Compound 1338] ({CH2CO}-Y(Carboxymethyl)[4Pal]DWL[Bip]V[Orn][dL]N[Cha]VSCG-NH2; thioether N-14), the IC50 is 38 nM.
Turning to `CCCC[C@@H]1NC(=O)[C@H](CC(N)=O)NC(=O)[C@@H](CC(C)C)NC(=O)[C@H](CCCN)NC(=O)[C@H](C(C)C)NC(=O)[C@H](Cc2ccc(-c3ccccc3)cc2)NC(=O)[C@H](CC(C)C)NC(=O)[C@H](Cc2c[nH]c3ccccc23)NC(=O)[C@H](CC(=O)O)NC(=O)[C@H](Cc2ccc(O)cc2)NC(=O)[C@H](Cc2ccccc2)NC(=O)CSC[C@@H](C(=O)NCC(N)=O)NC(=O)[C@H](CO)NC(=O)[C@H](C(C)C)NC1=O` [Compound 1339] ({CH2CO}-FYDWL[Bip]V[Orn][dL]N[Nle]VSCG-NH2; thioether N-14), the IC50 was determined as 52 nM.
Still for that read-out and setting: the result for `CCCC[C@@H]1NC(=O)[C@H](CC(N)=O)NC(=O)[C@@H](CC(C)C)NC(=O)[C@H](CCCN)NC(=O)[C@H](C(C)C)NC(=O)[C@H](Cc2ccc(-c3ccccc3)cc2)NC(=O)[C@H](CC(C)C)NC(=O)[C@H](Cc2c[nH]c3ccccc23)NC(=O)[C@H](CC(=O)O)NC(=O)[C@H](Cc2ccc(C(=O)O)cc2)NC(=O)[C@H](Cc2ccc(OCC(=O)O)cc2)NC(=O)CSC[C@@H](C(=O)NCC(N)=O)NC(=O)[C@H](CO)NC(=O)[C@H](C(C)C)NC1=O` [Compound 1340] ({CH2CO}-Y(Carboxymethyl)[Phe(4-COOH)]DWL[Bip]V[Orn][dL]N[Nle]VSCG-NH2; thioether N-14) reads 21.7 nM.
